# Test results published in US11345702B1 (Myoforte Therapeutics, Inc., priority 2020, dated 2022).
# Biological target: 15-PGDH/HPGD (Homo sapiens (Human), UniProt P15428)
# Assay: hPGDH inhibitor screening biochemical assay
# Conditions: read-out: hPGDH: Average IC50
# Experimental: A hydroxyprostaglandin dehydrogenase inhibition screening biochemical assay can be performed to assess the synthesized inhibitors provided herein. Provided herein is an exemplary biochemical assay for hPGDH inhibitor screening.
# The in vitro biochemical assay can be performed in white, 384 plates in total 20 μl reaction volume consisting of 10 nM of 15-PGDH/HPGD (R&D System #5660-DH), 15 μM Prostaglandin E2 (Sigma, Cat #P5640-10MG) and 0.25 mM (3-Nicotinamide adenine dinucleotide sodium salt (Sigma, Cat #N0632-5G) made in reaction buffer (50 mM Tris-HCl, pH 7.5, 0.01% Tween 20) at 10-point dose response curve for test/tool compounds. Briefly, 5 μl (4×) of compounds solution and 5 μl (final concentration, 10 nM) of enzyme solution is added to white 384 well plates and incubated for 10 mins at 37° C. 5 μl (4×) of Prostaglandin E2 and 5 μl (4×) of β-Nicotinamide adenine dinucleotide sodium salt is added to the wells and incubated for 10 mins at room temperature. Fluorescence is recorded at ex/em=340 nm/485 nm. The percentage (%) inhibition of enzyme activity was determined relative to positive control (1% DMSO) and IC50 was calculated using GraphPad prism software (four parameter-variable slope equation).
# Sequence of 15-PGDH/HPGD (P15428 whole entry): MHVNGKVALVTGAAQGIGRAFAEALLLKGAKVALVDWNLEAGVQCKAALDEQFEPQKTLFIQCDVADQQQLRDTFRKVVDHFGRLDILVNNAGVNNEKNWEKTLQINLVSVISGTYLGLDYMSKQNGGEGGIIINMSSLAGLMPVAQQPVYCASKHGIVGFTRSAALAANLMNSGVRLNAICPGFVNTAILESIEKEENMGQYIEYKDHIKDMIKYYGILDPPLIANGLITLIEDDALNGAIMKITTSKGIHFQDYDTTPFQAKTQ
row,SMILES,IC50
1,"COc1ccc(-c2cn(C)c3cc(C(=O)N4CCC(F)CC4)cnc23)cc1 [MF-DH-181, (4-fluoropiperidin-1-yl)(3-(4-methoxyphenyl)-1-methyl-1H-pyrrolo[3,2-b]pyridin-6-yl)methanone]",100 to 1000 nM
2,CCc1nc2cc(C(=O)N3CCC(F)CC3)cnc2n1-c1ccc(OC)cc1 [MF-DH-184],100 to 1000 nM
3,COCCc1nc2cc(C(=O)N3CCC(F)CC3)cnc2n1-c1ccc(OC)cc1 [MF-DH-185],≥ 1000 nM
4,COCCc1nc2cc(C(=O)N3CCC(F)CC3)ccc2n1-c1ccc(OC)cc1 [MF-DH-186],100 to 1000 nM
5,"COc1ccc(-n2cc(Cl)c3cc(C(=O)N4CCC(F)CC4)cnc32)cc1 [MF-DH-191, (3-chloro-1-(4-methoxyphenyl)-1H-pyrrolo[2,3-b]pyridin-5-yl)(4-fluoropiperidin-1-yl)methanone]",< 100 nM
6,COc1ccc(-n2c(CCC(F)(F)F)nc3cc(C(=O)N4CCC(F)CC4)cnc32)cc1 [MF-DH-195],100 to 1000 nM
7,"COc1ccccc1-c1cn(C)c2cc(C(=O)N3CCC(F)CC3)cnc12 [MF-DH-200, (4-fluoropiperidin-1-yl)(3-(2-methoxyphenyl)-1-methyl-1H-pyrrolo[3,2-b]pyridin-6-yl)methanone]",≥ 1000 nM
8,COc1ccc(-c2c[nH]c3cc(C(=O)N4CCC(F)CC4)cnc23)cc1 [MF-DH-204],100 to 1000 nM
9,O=C(c1cnc2c(c1)ncn2-c1ccc(OC(F)F)cc1)N1CCC(F)CC1 [MF-DH-222],100 to 1000 nM
10,O=C(c1cnc2c(c1)ncn2-c1cccc(OC(F)(F)F)c1)N1CCC(F)CC1 [MF-DH-226],100 to 1000 nM
11,CCC(CC)n1cnc2cc(C(=O)N3CCCCC3)cnc21 [MF-DH-236],100 to 1000 nM
12,O=C(c1cnc2c(c1)ncn2-c1ccc(O)cc1)N1CCC(F)CC1 [MF-DH-238],100 to 1000 nM
13,COc1ccc(-n2cc(Cl)c3cc(C(=O)N4CCCCC4)cnc32)cc1 [MF-DH-239],< 100 nM
14,O=C(c1cnc2c(c1)c(Cl)cn2-c1ccc2c(c1)OC(F)(F)O2)N1CCC(F)CC1 [MF-DH-250],< 100 nM
15,O=C(c1cnc2c(c1)c(Cl)cn2-c1ccc2c(c1)OC(F)(F)O2)N1CCCCC1 [MF-DH-251],< 100 nM
16,O=C(c1ccc2c(c1)c(Cl)nn2-c1cncc(Cl)c1)N1CCCCC1 [MF-DH-271],100 to 1000 nM
17,COc1cccc(-n2nc(Cl)c3cc(C(=O)N4CCCCC4)ccc32)c1 [MF-DH-272],100 to 1000 nM
18,COc1cccc(-n2cc(Cl)c3cc(C(=O)N4CCCCC4)cnc32)c1 [MF-DH-273],< 100 nM
19,O=C(c1cnc2c(c1)c(Cl)cn2-c1cncc(Cl)c1)N1CCCCC1 [MF-DH-274],< 100 nM

row,SMILES,IC50
1,COc1cncc(-n2cc(Cl)c3cc(C(=O)N4CCCCC4)cnc32)c1 [MF-DH-275],< 100 nM
2,O=C(c1cnc2c(ccn2C2CCC(F)(F)CC2)c1)N1CCCCC1 [MF-DH-284],≥ 1000 nM
3,COc1ccc(-n2ccc3cc(C(=O)N4CCC(F)CC4)cnc32)cc1 [MF-DH-285],< 100 nM
4,"COc1ccc(-n2ccc3c(C#N)c(C(=O)N4CCCCC4)cnc32)cc1 [MF-DH-289, 1-(4-methoxyphenyl)-5-(piperidine-1-carbonyl)-1H-pyrrolo[2,3-b]pyridine-4-carbonitrile]",< 100 nM
5,"COc1ccc(-n2ccc3c(N)c(C(=O)N4CCCCC4)cnc32)cc1 [MF-DH-290, (4-amino-1-(4-methoxyphenyl)-1H-pyrrolo[2,3-b]pyridin-5-yl)(piperidin-1-yl)methanone]",< 100 nM
6,COc1cccc(-n2ccc3cc(C(=O)N4CCCCC4)cnc32)c1 [MF-DH-294],< 100 nM
7,O=C(c1cnc2c(ccn2-c2cncc(Cl)c2)c1)N1CCCCC1 [MF-DH-295],< 100 nM
8,COc1cncc(-n2ccc3cc(C(=O)N4CCCCC4)cnc32)c1 [MF-DH-296],< 100 nM
9,COc1ccc(-n2ccc3cc(C(=O)N4CCCCC4)cnc32)cc1 [MF-DH-297],< 100 nM
10,N#Cc1ccc(-n2ccc3cc(C(=O)N4CCCCC4)cnc32)cc1 [MF-DH-298],< 100 nM
11,NC(=O)c1ccc(-n2ccc3cc(C(=O)N4CCCCC4)cnc32)cc1 [MF-DH-299],< 100 nM
12,N#Cc1cccc(-n2ccc3cc(C(=O)N4CCCCC4)cnc32)c1 [MF-DH-300],< 100 nM
13,NC(=O)c1cccc(-n2ccc3cc(C(=O)N4CCCCC4)cnc32)c1 [MF-DH-301],< 100 nM
14,CN(C)c1cccc(-n2ccc3cc(C(=O)N4CCCCC4)cnc32)c1 [MF-DH-302],< 100 nM
15,NCc1cccc(-n2ccc3cc(C(=O)N4CCCCC4)cnc32)c1 [MF-DH-303],100 to 1000 nM
16,NCc1ccc(-n2ccc3cc(C(=O)N4CCCCC4)cnc32)cc1 [MF-DH-304],< 100 nM
17,CN(C)c1ccc(-n2ccc3cc(C(=O)N4CCCCC4)cnc32)cc1 [MF-DH-305],< 100 nM
18,CCOc1ccc(-n2ccc3cc(C(=O)N4CCCCC4)cnc32)cc1 [MF-DH-306],< 100 nM

# Next, values leading:
row,IC50,SMILES
1,< 100 nM,O=C(c1cnc2c(ccn2-c2ccc(CO)cc2)c1)N1CCCCC1 [MF-DH-307]
2,< 100 nM,O=C(c1cnc2c(ccn2-c2cccc(CO)c2)c1)N1CCCCC1 [MF-DH-308]
3,< 100 nM,CS(=O)(=O)c1cccc(-n2ccc3cc(C(=O)N4CCCCC4)cnc32)c1 [MF-DH-309]
4,< 100 nM,CS(=O)(=O)c1ccc(-n2ccc3cc(C(=O)N4CCCCC4)cnc32)cc1 [MF-DH-310]
5,≥ 1000 nM,"CS(=O)(=O)n1ccc2cc(C(=O)N3CCCCC3)cnc21 [MF-DH-311, (1-(methylsulfonyl)-1H-pyrrolo[2,3-b]pyridin-5-yl)(piperidin-1-yl)methanone]"
6,≥ 1000 nM,"Cc1ccc(S(=O)(=O)n2ccc3cc(C(=O)N4CCCCC4)cnc32)cc1 [MF-DH-312, piperidin-1-yl(1-tosyl-1H-pyrrolo[2,3-b]pyridin-5-yl)methanone]"
7,< 100 nM,Nc1cc(-n2ccc3cc(C(=O)N4CCCCC4)cnc32)ccn1 [MF-DH-317]
8,< 100 nM,O=C(c1cnc2c(ccn2-c2ccn3ccnc3c2)c1)N1CCCCC1 [MF-DH-318]
9,< 100 nM,"O=C(c1cnc2c(ccn2-c2ccc3[nH]ncc3c2)c1)N1CCCCC1 [MF-DH-319, (1-(1H-indazol-5-yl)-1H-pyrrolo[2,3-b]pyridin-5-yl)(piperidin-1-yl)methanone]"
10,< 100 nM,Cc1cncc(-n2ccc3cc(C(=O)N4CCCCC4)cnc32)c1 [MF-DH-320]
11,< 100 nM,O=C(c1cnc2c(ccn2-c2ccc(O)nc2)c1)N1CCCCC1 [MF-DH-321]
12,< 100 nM,Nc1cncc(-n2ccc3cc(C(=O)N4CCCCC4)cnc32)c1 [MF-DH-322]
13,< 100 nM,COc1ccc(-n2ccc3cc(C(=O)N4CCCCC4)cnc32)cn1 [MF-DH-323]
14,100 to 1000 nM,COc1ccc(-n2ccc3cc(C(=O)N4CCC(C(F)(F)F)CC4)cnc32)cc1 [MF-DH-324]
15,≥ 1000 nM,COc1ccc(-n2ccc3cc(C(=O)N4CCC(c5ccccc5)CC4)cnc32)cc1 [MF-DH-325]
16,≥ 1000 nM,COc1ccc(-n2ccc3cc(C(=O)N4CC(c5ccccc5)C4)cnc32)cc1 [MF-DH-326]
17,≥ 1000 nM,COc1ccc(-n2ccc3cc(C(=O)N4CCN(CC(F)(F)F)CC4)cnc32)cc1 [MF-DH-327]
18,100 to 1000 nM,"COc1ccc(-n2ccc3cc(C(=O)N4[C@H](C)CCC[C@@H]4C)cnc32)cc1 [MF-DH-328, ((2R,6S)-2,6-dimethylpiperidin-1-yl)(1-(4-methoxyphenyl)-1H-pyrrolo[2,3-b]pyridin-5-yl)methanone]"
